Tests used:
[1] = Stability in simulated gastric fluid; format: in vitro ADME; conditions: 37° C., pH 1.5, pepsin; for % degradation in 24 h when incubated with simulated gastric fluid / half-life (t1/2) in simulated gastric fluid: 2 μM; for half-life at 2 μM: simulated gastric fluid with pepsin, read-out: half-life (t1/2) in simulated gastric fluid
In short: (§1)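 Acidic quench (10% v/v TFA/H2O) preceded reversed-phase chromatography monitored at 206 nm, with fractions confirmed by ESI-MS.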

DPP IV = DPP IV (Homo sapiens, UniProt P27487); experiment: Stability against DPP IV enzyme; format: in vitro ADME; conditions: for % degradation in 24 h when incubated with DPP-IV enzyme: 2 μM, 37° C.; for half-life at 2 μM: DPP IV enzyme, pH 7.8, 37° C., read-out: half-life (t1/2) with DPP-IV enzyme
In short: as §1

[2] = test system: RIN5F (Rat Insulinoma) cells; experiment: In vitro glucose-dependent insulin secretion (RIN5F cell assay); format: cell-based; conditions: 16.7 mM glucose load, mean ± S.D., n = 3
Experimental: After trypsinization, RIN5F cells were seeded at a concentration of 0.2×10^6·cells per well, in 12 well plates.
The supernatant was collected and the insulin amount was measured by ultra sensitive Rat insulin ELISA kit (Crystal Chem, Ill.). The protein was estimated in the supernatant using Bicinchoninic Acid kit, according to the manufacturer's protocol (Sigma Aldrich, Mo.). The total insulin content obtained in Pico-gram (pg) was divided with the total protein (μg) in order to normalize for differences in cell density between wells.

[3] = Stability in human plasma; format: in vitro ADME; conditions: for half-life (t1/2) in human plasma / % degradation in 24 h when incubated with human plasma: 2 μM, 37° C.; for half-life at 2 μM: human, pooled human plasma, pH 7.8, 37° C., read-out: half-life (t1/2) in human plasma
In short: as §1

[4] = Stability against liver microsomes; format: in vitro ADME, human; conditions: for % degradation in 24 h when incubated with liver microsomes: 2 μM, 37° C.; for half-life at 2 μM: human, human liver microsomes, pH 7.8, 37° C., read-out: half-life (t1/2) with liver microsomes
In short: as §1

[5] = Stability in simulated intestinal fluid; format: in vitro ADME; conditions: 37° C.; for % degradation in 24 h when incubated with simulated intestinal fluid / half-life (t1/2) in simulated intestinal fluid: 2 μM, pH 7.5; for half-life at 2 μM: simulated intestinal fluid, pH 7.5, read-out: half-life (t1/2) in simulated intestinal fluid
In short: as §1

human glucagon receptor = biological target: T1, human glucagon receptor (Homo sapiens, UniProt P47871); experiment: In vitro human glucagon antagonist activity (inhibition of cAMP production), CHO/human glucagon R cells; format: cell-based
T1 construct: The full-length cDNA was cloned in pcDNA3.1(Invitrogen); expressed in transfected cells
Experimental: CHO cells were grown in Ham's F12 medium containing L-Glutamine (2 mM), HEPES (25 mM), NaHCO3 (1.1 g/L) and supplemented with newborn Calf Serum (NBCS; 10%), Penicillin (50 U/ml (v/v)) and Streptomycin (50 ug/ml (v/v)). Cells were split every 3 days 1:8.
The full-length cDNA was cloned in pcDNA3.1(Invitrogen). […] Clones expressing the receptor were generated by G418 (800 μg/ml active, Sigma) selection. The stable clones were thereafter maintained at 500 ug/ml (G418). The selected clone was used between passages 9-25 for cAMP assays.
The trypsin was inactivated using Ham's F12 medium containing 10% NBCS and the cells were suspended in 2 ml of complete medium. […] The medium was aspirated off from the 12 well plate and the cells were washed once using Ham's F12 (plain). […] After the incubation; the medium was removed and cells were washed once with plain Ham's F12. Subsequently, the cells were lysed by adding 500 ul of ice cold 0.1 N HCl to each well and shaking for 30 minutes at 200 rpm. The cells were then scrapped, the lysate was collected in micro centrifuge tubes and centrifuged at 12000 rpm for 10 min to remove the debris. 300 ul of supernatant from each micro-centrifuge tube was then removed into a glass tube and dried under N2 for 30 min, for cAMP estimation. The total cAMP was estimated from the sample according to the manufacturer's protocol using Cyclic AMP immunoassay kit (R&D systems, Minneapolis: MN). The remaining supernatant is used to determine the protein concentration using micro BCA (Sigma). Data is calculated as percent of control (Vehicle: water) and expressed as Mean+SD.

[6] = 1 nM test compound (fourth concentration column, between 100 nM and 10 μM) with saturated concentration of glucagon peptide
[7] = 1 nM test compound with saturated concentration of glucagon peptide
[8] = 10 nM test compound with saturated concentration of glucagon peptide
[9] = 100 nM test compound with saturated concentration of glucagon peptide
[10] = 10 μM test compound with saturated concentration of glucagon peptide

T1 sequence (P47871 26-477): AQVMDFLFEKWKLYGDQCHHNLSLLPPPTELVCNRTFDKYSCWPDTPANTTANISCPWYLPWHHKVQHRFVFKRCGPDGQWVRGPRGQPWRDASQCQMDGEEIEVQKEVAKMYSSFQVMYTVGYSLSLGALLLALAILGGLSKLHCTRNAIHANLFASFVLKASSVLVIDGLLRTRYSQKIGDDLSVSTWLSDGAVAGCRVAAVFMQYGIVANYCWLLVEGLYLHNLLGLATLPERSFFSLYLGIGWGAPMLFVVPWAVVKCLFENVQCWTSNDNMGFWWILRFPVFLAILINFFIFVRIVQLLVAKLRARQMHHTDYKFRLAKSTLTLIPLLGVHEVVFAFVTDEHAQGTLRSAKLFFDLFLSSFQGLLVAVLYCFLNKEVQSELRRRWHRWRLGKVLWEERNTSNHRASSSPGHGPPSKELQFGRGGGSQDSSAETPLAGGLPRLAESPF
Chain of DPP IV (P27487 whole entry, species assumed): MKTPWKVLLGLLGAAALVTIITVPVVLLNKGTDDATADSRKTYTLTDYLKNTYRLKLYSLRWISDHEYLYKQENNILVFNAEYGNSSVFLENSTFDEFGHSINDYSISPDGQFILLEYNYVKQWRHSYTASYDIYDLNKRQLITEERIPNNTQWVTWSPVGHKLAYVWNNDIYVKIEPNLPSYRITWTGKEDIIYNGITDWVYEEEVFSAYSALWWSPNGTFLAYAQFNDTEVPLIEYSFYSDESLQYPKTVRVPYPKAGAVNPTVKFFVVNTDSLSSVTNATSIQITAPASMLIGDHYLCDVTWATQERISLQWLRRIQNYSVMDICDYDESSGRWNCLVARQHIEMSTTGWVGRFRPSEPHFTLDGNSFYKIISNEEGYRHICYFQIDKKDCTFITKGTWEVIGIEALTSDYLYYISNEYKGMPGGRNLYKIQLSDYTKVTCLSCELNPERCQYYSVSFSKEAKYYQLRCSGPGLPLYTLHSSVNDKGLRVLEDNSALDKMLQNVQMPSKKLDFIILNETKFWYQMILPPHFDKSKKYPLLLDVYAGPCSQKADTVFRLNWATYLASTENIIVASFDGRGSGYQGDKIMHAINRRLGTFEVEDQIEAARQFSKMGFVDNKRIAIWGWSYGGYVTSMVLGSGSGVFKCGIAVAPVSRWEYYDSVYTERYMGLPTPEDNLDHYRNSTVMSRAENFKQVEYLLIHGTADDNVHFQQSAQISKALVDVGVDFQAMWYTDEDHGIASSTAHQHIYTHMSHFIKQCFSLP

| SMILES | % degradation in 24 h when incubated with simulated gastric fluid [1] [%] | half-life at 2 μM [1] [min] | % degradation in 24 h when incubated with DPP-IV enzyme (DPP IV) [%] | Insulin secretion ([2]; 0.1 nM test compd.) [pg/µg/h] | Insulin secretion ([2]; 1 nM test compd.) [pg/µg/h] | Insulin secretion ([2]; 10 nM test compd.) [pg/µg/h] | half-life (t1/2) in human plasma [3] | % degradation in 24 h when incubated with human plasma [3] [%] | % degradation in 24 h when incubated with liver microsomes [4] [%] | half-life at 2 μM [4] [min] | % degradation in 24 h when incubated with simulated intestinal fluid [5] [%] | half-life at 2 μM [5] [min] | Human Glucagon receptor antagonistic activity, inhibition of cAMP production of Glucagon peptide (human glucagon receptor; [6]) [pmol/ml/μg prt] | Human Glucagon receptor antagonistic activity, inhibition of cAMP production of Glucagon peptide (human glucagon receptor; [7]) [pmol/ml/μg prt] | Human Glucagon receptor antagonistic activity, inhibition of cAMP production of Glucagon peptide (human glucagon receptor; [8]) [pmol/ml/μg prt] | Human Glucagon receptor antagonistic activity, inhibition of cAMP production of Glucagon peptide (human glucagon receptor; [9]) [pmol/ml/μg prt] | Human Glucagon receptor antagonistic activity, inhibition of cAMP production of Glucagon peptide (human glucagon receptor; [10]) [pmol/ml/μg prt] | half-life (t1/2) in simulated gastric fluid [1] | half-life at 2 μM (DPP IV) [min] | half-life at 2 μM [3] [min] | further results |
| --- | --- | --- | --- | --- | --- | --- | --- | --- | --- | --- | --- | --- | --- | --- | --- | --- | --- | --- | --- | --- | --- |
| CCc1cc(OC)ccc1-c1ccc(CC(NC(=O)[C@H](CC(=O)O)NC(=O)[C@H](CO)NC(=O)[C@@H](NC(=O)[C@H](Cc2ccccc2)NC(=O)[C@@H](NC(=O)CNC(=O)[C@H](CCC(N)=O)NC(=O)[C@H](C)NC(=O)[C@@H](N)Cc2c[nH]cn2)[C@@H](C)O)[C@@H](C)O)C(=O)NC(Cc2ccc(-c3ccccc3C(F)(F)F)cc2)C(N)=O)cc1 (single isomer, unassigned) [compound 12] | 100 | 30 | 72 | 12.9 ± 0.14 | 15.8 ± 0.13 | 29.9 ± 0.15 | (9) h | 70 | 100 | 30 | 100 | 30 | 0 | 5 ± 0.09 | 3 ± 0.11 | 0 | 0 | – | – | – | – |
| CCc1cc(OC)ccc1-c1ccc(CC(NC(=O)[C@H](CC(=O)O)NC(=O)[C@H](CO)NC(=O)[C@@H](NC(=O)C(C)(Cc2ccccc2F)NC(=O)[C@@H](NC(=O)CNC(=O)[C@H](CCC(N)=O)NC(=O)[C@H](CO)NC(=O)[C@@H](N)Cc2c[nH]cn2)[C@@H](C)O)[C@@H](C)O)C(=O)NC(Cc2ccc(-c3ccccc3C(F)(F)F)cc2)C(N)=O)cc1 (single isomer, unassigned) [compound 24] | 14 | – | 76 | 12.3 ± 0.33 | 14.8 ± 0.16 | 28.1 ± 0.22 | – | 78 | 80 | 60 | 43 | – | 0 | 4 ± 0.09 | 2 ± 0.12 | 0 | 0 | (8) h | 540 | 480 | half-life (t1/2) in simulated intestinal fluid [5]: (6) h |
| CCc1cc(OC)ccc1-c1ccc(CC(NC(=O)[C@H](CC(=O)O)NC(=O)[C@H](CO)NC(=O)[C@@H](NC(=O)[C@H](Cc2ccccc2)NC(=O)[C@@H](NC(=O)CNC(=O)[C@H](CCC(N)=O)NC(=O)[C@H](C)NC(=O)[C@@H](N)Cc2c[nH]cn2)[C@@H](C)O)[C@@H](C)O)C(=O)NC(Cc2ccc(-c3ccccc3F)cc2)C(N)=O)cc1 (single isomer, unassigned) [compound 11] | 100 | 30 | 86 | 13.1 ± 0.11 | 14.9 ± 0.17 | 28.8 ± 0.44 | (9) h | 70 | 100 | 30 | 100 | 30 | 2 ± 0.13 | 10 ± 0.03 | 8 ± 0.03 | 6 ± 0.22 | 0 | – | – | – | – |
| CCc1cc(OC)ccc1-c1ccc(CC(NC(=O)[C@H](CC(=O)O)NC(=O)[C@H](CO)NC(=O)[C@@H](NC(=O)C(C)(Cc2ccccc2F)NC(=O)[C@@H](NC(=O)CNC(=O)[C@H](CCC(N)=O)NC(=O)[C@H](CO)NC(=O)[C@@H](N)Cc2c[nH]cn2)[C@@H](C)O)[C@@H](C)O)C(=O)NC(Cc2ccc(-c3ccccc3F)cc2)C(N)=O)cc1 (single isomer, unassigned) [compound 23] | 13 | – | 77 | 11.9 ± 0.17 | 14.2 ± 0.13 | 27.6 ± 0.16 | – | 80 | 82 | 60 | 50 | – | 0 | 4 ± 0.05 | 2 ± 0.13 | 2 ± 0.12 | 0 | (8) h | 540 | 480 | half-life (t1/2) in simulated intestinal fluid [5]: (6) h |
